Patent US8551984B2, “Aminopyrimidines as SYK inhibitors” (Merck Sharp & Dohme Corp., priority 2009, dated 2013)
pIC50: −log10 of the molar value.

Biological target: recombinant human SYK (GST-hSYK fusion protein) (Homo sapiens, UniProt P43405)
Experiment: biochemical
Details: rhSYK Activity
Text: Homogeneous Time-Resolved Fluorescence (HTRF) Assay for the Recombinant Human SYK Enzyme:

| SMILES | pIC50 (Table 33-A) | other results |
| --- | --- | --- |
| FC(F)(F)c1ccnc(Nc2cccc(-c3cnc(C4CCOC4)s3)c2)n1 (centres unmarked) [Example 21-5] |  | pIC50 (Table 21): > 7.00 |
| FC(F)(F)c1ccnc(Nc2cccc(-c3cnc(CN4CCOCC4)s3)c2)n1 [Example 21-6] |  | pIC50 (Table 21): > 7.00 |
| FC(F)(F)c1ccnc(Nc2cccc(-c3cnc(C4CCc5ccccc54)s3)c2)n1 (centres unmarked) [Example 21-7] |  | pIC50 (Table 21): 5.00 to 6.00 |
| CCN(CC)CCC(C)(O)c1ncc(-c2cccc(Nc3nccc(C(F)(F)F)n3)c2)s1 (centres unmarked) [Example 21-8] |  | pIC50 (Table 21): 6.00 to 7.00 |
| FC1(F)CC(c2ncc(-c3cccc(Nc4nccc(C(F)(F)F)n4)c3)s2)C1 [Example 21-9] |  | pIC50 (Table 21): 6.00 to 7.00 |
| O=C1OCCN1Cc1ncc(-c2cccc(Nc3nccc(C(F)(F)F)n3)c2)s1 [Example 21-10] |  | pIC50 (Table 21): > 7.00 |
| COC(=O)[C@H]1CC[C@H](c2ncc(-c3cccc(Nc4nccc(C(F)(F)F)n4)c3)s2)CC1 [Example 21-11, methyl trans-4-[5-(3-{[4-(trifluoromethyl)pyrimidin-2-yl]amino}phenyl)-1,3-thiazol-2-yl]cyclohexanecarboxylate] |  | pIC50 (Table 21): 6.00 to 7.00 |
| O=C(NCCO)[C@H]1CC[C@H](c2ncc(-c3cccc(Nc4nccc(C(F)(F)F)n4)c3)s2)CC1 [Example 21-12] |  | pIC50 (Table 21): > 7.00 |
| O=C1CC(c2ncc(-c3cccc(Nc4nccc(C(F)(F)F)n4)c3)s2)CN1 (centres unmarked) [Example 21-14] |  | pIC50 (Table 21): > 7.00 |
| FC(F)(F)c1ccnc(Nc2cccc(-c3cnc(C4COCCO4)s3)c2)n1 (centres unmarked) [Example 21-15] |  | pIC50 (Table 21): > 7.00 |
| CN1CC(c2ncc(-c3cccc(Nc4nccc(C(F)(F)F)n4)c3)s2)CCC1=O (centres unmarked) [Example 21-17] |  | pIC50 (Table 21): > 7.00 |
| CN1CCCCCC1c1ncc(-c2cccc(Nc3nccc(C(F)(F)F)n3)c2)s1 (centres unmarked) [Example 21-18] |  | pIC50 (Table 21): 6.00 to 7.00 |
| OC(c1ncc(-c2cc(NCC(F)(F)F)cc(Nc3nccc(C(F)(F)F)n3)c2)s1)C(F)F (centres unmarked) [Example 27-1] |  | pIC50 (Table 27): > 7.00 |
| CC(O)(c1ncc(-c2cc(NCC(F)(F)F)cc(Nc3nccc(C(F)(F)F)n3)c2)s1)C(F)(F)F (centres unmarked) [Example 27-2] |  | pIC50 (Table 27): > 7.00 |
| Cc1cc(Nc2ncc(F)cn2)cc(-c2cnc(C3(O)CCC(C)(C(=O)O)CC3)s2)c1 (centres unmarked) [Example 33A-3] | > 7.00 |  |
| Cc1cc(Nc2ncc(F)cn2)cc(-c2cnc([C@]3(O)CC[C@](C)(C(=O)O)CC3)s2)c1 [Example 33A-4] | > 7.00 |  |
| Cc1cc(Nc2nccc(C(F)(F)F)n2)cc(-c2cnc([C@]3(O)CC[C@H](C(=O)O)CC3)s2)c1 [Example 33A-8] | > 7.00 |  |
| Cc1cc(Nc2nccc(C(F)(F)F)n2)cc(-c2cnc(C3(O)CCC(C(=O)O)(c4ccccc4)CC3)s2)c1 (centres unmarked) [Example 33A-9] | > 7.00 |  |
| CCOC(=O)C1(C)CCC(O)(c2ncc(-c3cc(C)cc(Nc4nccc(C(F)(F)F)n4)c3)s2)CC1 (centres unmarked) [Example 33A-11] | 6.00 to 7.00 |  |
| Cc1cc(Nc2nccc(C(F)(F)F)n2)cc(-c2cnc([C@]3(O)CC[C@](C)(C(=O)O)CC3)s2)c1 [Example 33A-12] | > 7.00 |  |
| Cc1cc(Nc2nccc(C(F)(F)F)n2)cc(-c2cnc(C3(O)CCC(C)(C(=O)O)CC3)s2)c1 (centres unmarked) [Example 33A-13] | > 7.00 |  |
| COC(=O)C1(NC(C)=O)CCC(O)(c2ncc(-c3cc(C)cc(Nc4nccc(C(F)(F)F)n4)c3)s2)CC1 (centres unmarked) [Example 33A-14] | > 7.00 |  |
| CC(=O)NC1(C(=O)O)CCC(O)(c2ncc(-c3cc(C)cc(Nc4nccc(C(F)(F)F)n4)c3)s2)CC1 (centres unmarked) [Example 33A-15] | > 7.00 |  |
| Cc1cc(Nc2nccc(C(F)(F)F)n2)cc(-c2cnc([C@]3(O)CC[C@H](CC(=O)O)CC3)s2)c1 [Example 33A-16] | > 7.00 |  |
| Cc1cc(Nc2nccc(C(F)(F)F)n2)cc(-c2cnc(C3(O)CCC(CCC(=O)O)CC3)s2)c1 (centres unmarked) [Example 33A-18] | > 7.00 |  |

| SMILES | pIC50 (Table 33-A) | other results |
| --- | --- | --- |
| CCOC(=O)CCC1CCC(O)(c2ncc(-c3cc(C)cc(Nc4nccc(C(F)(F)F)n4)c3)s2)CC1 (centres unmarked) [Example 33A-21] | > 7.00 |  |
| O=C(O)[C@H]1CC[C@@](O)(c2ncc(-c3cc(Cl)cc(Nc4nccc(C(F)(F)F)n4)c3)s2)CC1 [Example 33A-22] | > 7.00 |  |
| O=C(O)[C@H]1CC[C@@](O)(c2ncc(-c3cccc(Nc4nccc(C(F)(F)F)n4)c3)s2)CC1 [Example 33A-23] | > 7.00 |  |
| O=C(O)[C@H]1CC[C@](O)(c2ncc(-c3cccc(Nc4nccc(C(F)(F)F)n4)c3)s2)CC1 [Example 33A-24] | > 7.00 |  |
| CCOC(=O)[C@H]1CC[C@](O)(c2ncc(-c3cccc(Nc4nccc(C(F)(F)F)n4)c3)s2)CC1 [Example 33A-25] | > 7.00 |  |
| CCOC(=O)[C@H]1CC[C@@](O)(c2ncc(-c3cccc(Nc4nccc(C(F)(F)F)n4)c3)s2)CC1 [Example 33A-26] | 6.00 to 7.00 |  |
| Cc1cc(Nc2nccc(C(C)C)n2)cc(-c2cnc([C@]3(O)CC[C@@H](C(=O)OC(C)(C)C)CC3)s2)c1 [Example 33A-29] | 6.00 to 7.00 |  |
| Cc1cc(Nc2nccc(C)n2)cc(-c2cnc([C@]3(O)CC[C@@H](C(=O)O)CC3)s2)c1 [Example 33A-30] | > 7.00 |  |
| Cc1cc(Nc2nccc(C)n2)cc(-c2cnc([C@]3(O)CC[C@H](C(=O)O)CC3)s2)c1 [Example 33A-31] | > 7.00 |  |
| Cc1cc(Nc2nccc(C)n2)cc(-c2cnc(C3(O)CCC(CC(=O)O)CC3)s2)c1 (centres unmarked) [Example 33A-32] | > 7.00 |  |
| Cc1cc(Nc2nccc(OC(C)C)n2)cc(-c2cnc([C@]3(O)CC[C@@H](C(=O)OC(C)(C)C)CC3)s2)c1 [Example 33A-34] | 6.00 to 7.00 |  |
| COc1ccnc(Nc2cc(C)cc(-c3cnc(C4(O)CCC(C(=O)O)CC4)s3)c2)n1 (centres unmarked) [Example 33A-35] | > 7.00 |  |
| COc1ccnc(Nc2cc(C)cc(-c3cnc([C@]4(O)CC[C@](C)(C(=O)O)CC4)s3)c2)n1 [Example 33A-38] | > 7.00 |  |
| COC(=O)C1CCC(O)(c2ncc(-c3cc(C)cc(Nc4ncc(F)c(C5CC5)n4)c3)s2)CC1(C)C (centres unmarked) [Example 33A-39] | > 7.00 |  |
| Cc1cc(Nc2ncc(F)c(C3CC3)n2)cc(-c2cnc(C3(O)CCC(C(=O)O)C(C)(C)C3)s2)c1 (centres unmarked) [Example 33A-40] | > 7.00 |  |
| Cc1cc(Nc2ncc(F)cn2)cc(-c2cnc(C3(O)CCC(C(=O)O)C(C)(C)C3)s2)c1 (centres unmarked) [Example 33A-45] | 6.00 to 7.00 |  |
| CC(C)(O)c1cc(Nc2nccc(C(F)(F)F)n2)cc(-c2cnc(C3(O)CCC(C(=O)O)C(C)(C)C3)s2)c1 (centres unmarked) [Example 33A-48] | > 7.00 |  |
| COC(=O)C1CCC(O)(c2ncc(-c3cc(COC(C)=O)cc(Nc4nccc(C(F)(F)F)n4)c3)s2)CC1(C)C (centres unmarked) [Example 33A-49] | > 7.00 |  |
| COC(=O)C1CCC(O)(c2ncc(-c3cc(Nc4nccc(C(F)(F)F)n4)cc(C(F)F)c3)s2)CC1(C)C (centres unmarked) [Example 33A-55] | 6.00 to 7.00 |  |
| CC1(C)CC(O)(c2ncc(-c3cc(Nc4nccc(C(F)(F)F)n4)cc(C(F)F)c3)s2)CCC1C(=O)O (centres unmarked) [Example 33A-56] | > 7.00 |  |
| COC(=O)C1CCC(O)(c2ncc(-c3cc(Nc4nccc(C(F)(F)F)n4)cc(C4CC4)c3)s2)CC1(C)C (centres unmarked) [Example 33A-61] | > 7.00 |  |
| COC(=O)C1CCC(O)(c2ncc(-c3cccc(Nc4nccc(C(F)(F)F)n4)c3)s2)CC1(C)C (centres unmarked) [Example 33A-65] | 6.00 to 7.00 |  |
| COC(=O)C1CCC(O)(c2ncc(-c3cc(C)cc(Nc4nccc(C)n4)c3)s2)CC1(C)C (centres unmarked) [Example 33A-69] | > 7.00 |  |
| COC(=O)C1CCC(O)(c2ncc(-c3cc(C)cc(Nc4nccc(C5CC5)n4)c3)s2)CC1(C)C (centres unmarked) [Example 33A-70] | > 7.00 |  |
| Cc1cc(Nc2nccc(C3CC3)n2)cc(-c2cnc(C3(O)CCC(C(=O)O)C(C)(C)C3)s2)c1 (centres unmarked) [Example 33A-71] | > 7.00 |  |
